Measured values from patent publication US20250144094A1 (Erasca, Inc., priority 2021, published 2025).
pIC50: −log10 of the molar value.

These compounds were tested against Recombinant human ULK1 (1-649) (Homo sapiens (Human), UniProt O75385) (assay: ULK1 ADP Glo kinase activity assay (MBP substrate)). Settings: 25° C., 40 minutes, read-out: ULK1 biochemical IC50.
Chain of Recombinant human ULK1 (1-649) (O75385 1-649): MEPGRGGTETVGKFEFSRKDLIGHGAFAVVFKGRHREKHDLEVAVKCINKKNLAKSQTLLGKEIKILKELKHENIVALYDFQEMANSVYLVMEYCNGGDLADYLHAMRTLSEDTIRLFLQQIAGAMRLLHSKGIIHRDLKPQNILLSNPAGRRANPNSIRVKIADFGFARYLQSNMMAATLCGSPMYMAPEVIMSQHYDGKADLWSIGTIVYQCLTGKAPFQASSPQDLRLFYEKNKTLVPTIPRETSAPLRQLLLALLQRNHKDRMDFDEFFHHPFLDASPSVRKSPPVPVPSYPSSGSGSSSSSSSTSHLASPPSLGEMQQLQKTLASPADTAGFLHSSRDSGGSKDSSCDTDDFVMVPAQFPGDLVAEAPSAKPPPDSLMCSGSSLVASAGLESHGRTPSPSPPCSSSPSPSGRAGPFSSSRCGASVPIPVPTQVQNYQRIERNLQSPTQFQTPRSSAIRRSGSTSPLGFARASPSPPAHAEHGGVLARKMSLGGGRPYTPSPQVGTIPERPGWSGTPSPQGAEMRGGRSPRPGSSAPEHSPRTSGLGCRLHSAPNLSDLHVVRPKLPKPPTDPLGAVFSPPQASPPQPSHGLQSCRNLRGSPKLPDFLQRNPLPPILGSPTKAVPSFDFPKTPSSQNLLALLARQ
Description: Recombinant human ULK1 (1-649) protein expressed in Sf9 insect cells was obtained from SignalChem (Vancouver, BC), catalog #U01-11G. Active kinase was purified via N-terminal GST tag to >85% purity.
ADP GLO Kinase Assay Reagents were obtained from Promega Corp (Madison, WI), catalog #V9104.
MBP (myelin basic protein) substrate, bovine, purified, was obtained from Sigma (St. Louis, MO), catalog #M1891.
ULK1 inhibitor potency was determined using the luminescent ADP Glo Kinase Assay (Promega), a universal ADP detection system that measures kinase activity by quantifying the amount of ADP produced during a kinase reaction. ULK1 kinase reactions are performed in a standard 96-well microplate (20 uL reaction volume) at 25° C. for 40 minutes in the presence or absence of the test compound (12-point dilution series starting at 10 uM). Addition of MBP substrate and ATP initiates the kinase reaction.
The standard ADP Glo assay is performed in two steps. In step one, following the kinase reaction, an equal volume of ADP-Glo™ Reagent (20 uL) is added to terminate the kinase reaction and deplete the remaining ATP. In the second step, the Kinase Detection Reagent (10 uL) is added to simultaneously convert ADP to ATP and allow the newly synthesized ATP to be measured using a luciferase/luciferin reaction. Step two of the ADP Glo assay is performed in a white 384-well plate (20 uL final volume). Thirty minutes after the addition of the Detection reagent, light generated from the luciferase reaction is measured (1 second exposure) using a microplate compatible luminometer (CLARIOstar, BMG Labtech).
Inhibition of ULK1 kinase activity is determined for each test compound by comparison to DMSO only control wells. Inhibitor IC50 was calculated by plotting the change in luminescence after 30 minutes (response) versus inhibitor concentration (in log molar) then applying the four-parameter variable slope curve fit (GraphPad Prism). Inhibition of ULK1 in biochemical assay is found in Table 3.
With O=C1NCCNc2sc(-c3nc(Nc4cc5c(cc4Cl)CNCC5)ncc3C(F)(F)F)cc21 [Example 53, 7-(2-((7-chloro-1,2,3,4-tetrahydroisoquinolin-6-yl)amino)-5-(trifluoromethyl)pyrimidin-4-yl)-1,2,3,4-tetrahydro-5H-thieno[2,3-e][1,4]diazepin-5-one] the pIC50 was ≥ 8.00. Compound O=S(=O)(CCN1CCOCC1)c1csc(-c2nc(Nc3cc4c(cc3Cl)CNCC4)ncc2C(F)(F)F)c1 [Example 54, 7-chloro-N-(4-(4-((2-morpholinoethyl)sulfonyl)thiophen-2-yl)-5-(trifluoromethyl)pyrimidin-2-yl)-1,2,3,4-tetrahydroisoquinolin-6-amine] has a pIC50 of 6.30 to 7.00. For COCCOc1sc(-c2nc(Nc3cc4c(cc3Cl)CNCC4)ncc2C(F)(F)F)cc1C(N)=O [Example 55, 5-(2-((7-chloro-1,2,3,4-tetrahydroisoquinolin-6-yl)amino)-5-(trifluoromethyl)pyrimidin-4-yl)-2-(2-methoxyethoxy)thiophene-3-carboxamide], the pIC50 was ≥ 8.00. With COCCOc1sc(-c2nc(Nc3cc4c(cc3Cl)CNCC4)ncc2C(F)(F)F)cc1S(C)(=O)=O [Example 56, 7-chloro-N-(4-(5-(2-methoxyethoxy)-4-(methylsulfonyl)thiophen-2-yl)-5-(trifluoromethyl)pyrimidin-2-yl)-1,2,3,4-tetrahydroisoquinolin-6-amine] the pIC50 was ≥ 8.00. With COCCOc1sc(-c2nc(Nc3cc4c(cc3Cl)CN(C)CC4)ncc2C(F)(F)F)cc1S(C)(=O)=O [Example 57, 7-chloro-N-(4-(5-(2-methoxyethoxy)-4-(methylsulfonyl)thiophen-2-yl)-5-(trifluoromethyl)pyrimidin-2-yl)-2-methyl-1,2,3,4-tetrahydroisoquinolin-6-amine] the pIC50 was ≥ 8.00. CS(=O)(=O)c1cc(-c2nc(Nc3cc4c(cc3Cl)CNCC4)ncc2C(F)(F)F)sc1C(=O)N1CCOCC1 [Example 58, (5-(2-((7-chloro-1,2,3,4-tetrahydroisoquinolin-6-yl)amino)-5-(trifluoromethyl)pyrimidin-4-yl)-3-(methylsulfonyl)thiophen-2-yl)(morpholino)methanone] showed a pIC50 of 6.30 to 7.00. For CS(=O)(=O)c1cc(-c2nc(Nc3cc4c(cc3Cl)CNCC4)ncc2C(F)(F)F)sc1C(N)=O [Example 59, 5-(2-((7-chloro-1,2,3,4-tetrahydroisoquinolin-6-yl)amino)-5-(trifluoromethyl)pyrimidin-4-yl)-3-(methylsulfonyl)thiophene-2-carboxamide], the pIC50 was ≥ 8.00. With O=S1(=O)CCCOc2sc(-c3nc(Nc4cc5c(cc4Cl)CNCC5)ncc3C(F)(F)F)cc21 [Example 60, 2-(2-((7-chloro-1,2,3,4-tetrahydroisoquinolin-6-yl)amino)-5-(trifluoromethyl)pyrimidin-4-yl)-6,7-dihydro-5H-thieno[2,3-b][1,4]oxathiepine 4,4-dioxide] the pIC50 was ≥ 8.00. With CN1CCc2cc(Nc3ncc(C(F)(F)F)c(-c4cc(S(C)(=O)=O)c(C(=O)N5CCOCC5)s4)n3)c(Cl)cc2C1 [Example 61, (5-(2-((7-chloro-2-methyl-1,2,3,4-tetrahydroisoquinolin-6-yl)amino)-5-(trifluoromethyl)pyrimidin-4-yl)-3-(methylsulfonyl)thiophen-2-yl)(morpholino)methanone] the pIC50 was 6.30 to 7.00. CS(=O)(=O)c1cc(-c2nc(Nc3cc4c(cc3Cl)CNCC4)ncc2C(F)(F)F)sc1CN1CCOCC1 [Example 62, 7-chloro-N-(4-(4-(methylsulfonyl)-5-(morpholinomethyl)thiophen-2-yl)-5-(trifluoromethyl)pyrimidin-2-yl)-1,2,3,4-tetrahydroisoquinolin-6-amine] was tested, and the pIC50 was 7.30 to 8.00. CN1CCc2cc(Nc3ncc(C(F)(F)F)c(-c4cc(S(C)(=O)=O)c(C(N)=O)s4)n3)c(Cl)cc2C1 [Example 63, 5-(2-((7-Chloro-2-methyl-1,2,3,4-tetrahydroisoquinolin-6-yl)amino)-5-(trifluoromethyl)pyrimidin-4-yl)-3-(methylsulfonyl)thiophene-2-carboxamide] was tested, and the pIC50 was ≥ 8.00. With O=S1(=O)CCNCc2sc(-c3nc(Nc4cc5c(cc4Cl)CNCC5)ncc3C(F)(F)F)cc21 [Example 64, 7-(2-((7-chloro-1,2,3,4-tetrahydroisoquinolin-6-yl)amino)-5-(trifluoromethyl)pyrimidin-4-yl)-2,3,4,5-tetrahydrothieno[2,3-f][1,4]thiazepine 1,1-dioxide] the pIC50 was ≥ 8.00. In the case of COCCOc1sc(-c2nc(Nc3cc4c(cc3Cl)CN(C)CC4)ncc2C(F)(F)F)cc1C(N)=O [Example 66, 5-(2-((7-chloro-2-methyl-1,2,3,4-tetrahydroisoquinolin-6-yl)amino)-5-(trifluoromethyl)pyrimidin-4-yl)-2-(2-methoxyethoxy)thiophene-3-carboxamide], the pIC50 was ≥ 8.00. For CN1CCc2cc(Nc3ncc(C(F)(F)F)c(-c4cc(S(C)(=O)=O)c(CN5CCOCC5)s4)n3)c(Cl)cc2C1 [Example 67, 7-chloro-2-methyl-N-(4-(4-(methylsulfonyl)-5-(morpholinomethyl)thiophen-2-yl)-5-(trifluoromethyl)pyrimidin-2-yl)-1,2,3,4-tetrahydroisoquinolin-6-amine], the pIC50 was 7.30 to 8.00. With CSc1cc2c(cc1Nc1ncc(C(F)(F)F)c(-c3cc(S(C)(=O)=O)cs3)n1)CCN(C)C2 [Example 68, 2-methyl-N-(4-(4-(methylsulfonyl)thiophen-2-yl)-5-(trifluoromethyl)pyrimidin-2-yl)-7-(methylthio)-1,2,3,4-tetrahydroisoquinolin-6-amine] the pIC50 was ≥ 8.00. CN1CCc2cc(Nc3ncc(C(F)(F)F)c(-c4cc5c(s4)CNCCS5(=O)=O)n3)c(Cl)cc2C1 [Example 69, 7-(2-((7-chloro-2-methyl-1,2,3,4-tetrahydroisoquinolin-6-yl)amino)-5-(trifluoromethyl)pyrimidin-4-yl)-2,3,4,5-tetrahydrothieno[2,3-f][1,4]thiazepine 1,1-dioxide] was tested, and the pIC50 was ≥ 8.00. For O=C1NCCOc2sc(-c3nc(Nc4cc5c(cc4Cl)CNCC5)ncc3C(F)(F)F)cc21 [Example 71, 7-(2-((7-chloro-1,2,3,4-tetrahydroisoquinolin-6-yl)amino)-5-(trifluoromethyl)pyrimidin-4-yl)-3,4-dihydrothieno[3,2-f][1,4]oxazepin-5(2H)-one], the pIC50 was ≥ 8.00. With CCc1cc2c(cc1Nc1ncc(C(F)(F)F)c(-c3cc(S(C)(=O)=O)cs3)n1)CNC2 [Example 72, 6-ethyl-N-(4-(4-(methylsulfonyl)thiophen-2-yl)-5-(trifluoromethyl)pyrimidin-2-yl)isoindolin-5-amine] the pIC50 was ≥ 8.00. In the case of CS(=O)(=O)c1csc(-c2nc(Nc3cc4c(cc3Cl)CNC4)ncc2C(F)(F)F)c1 [Example 73, 6-chloro-N-(4-(4-(methylsulfonyl)thiophen-2-yl)-5-(trifluoromethyl)pyrimidin-2-yl)isoindolin-5-amine], the pIC50 was ≥ 8.00. CS(=O)(=O)c1cc(-c2nc(Nc3cc4c(cc3Cl)CNCC4)ncc2C(F)(F)F)sc1C1=CCOCC1 [Example 75, 7-chloro-N-(4-(5-(3,6-dihydro-2H-pyran-4-yl)-4-(methylsulfonyl)thiophen-2-yl)-5-(trifluoromethyl)pyrimidin-2-yl)-1,2,3,4-tetrahydroisoquinolin-6-amine] was tested, and the pIC50 was ≥ 8.00. Compound CCc1cc2c(cc1Nc1ncc(C(F)(F)F)c(-c3cc(S(C)(=O)=O)cs3)n1)CN(C)C2 [Example 76, 6-ethyl-2-methyl-N-(4-(4-(methylsulfonyl)thiophen-2-yl)-5-(trifluoromethyl)pyrimidin-2-yl)isoindolin-5-amine] has a pIC50 of 7.30 to 8.00.
